Consider eight molecules from US20250051375A1, “ANTI-HIV COMPOUNDS” (Gilead Sciences, Inc., priority 2023, published 2025).

Values after ≈ are worked out from the molar mass of the structure shown. Read-outs that look alike come from different tables or passages of the source.

One data set concerns HIV-1 IIIB strain. Briefly: MT-4 HIV Wild Type Virus Infection Assay (IIIB Virus). The format is cell-based. The following applies: Human immunodeficiency virus 1, IIIB, MT4, 120 h, MT-4 cells acutely infected with HIV-1 IIIB, 5 day incubation, Cell-titer glo. Here is the method:
Test compounds and controls were serially diluted and spotted in replicate into 384 well black assay plates via acoustic transfer (Echo). MT-4 cells were grown in batch, centrifuged and resuspended into fresh CCM media (RPMI w/10% FBS, 1% PS) at 2×10^6 cells/ml. MT-4 cells were acutely infected with HIV-1 IIIB strain. The size of each infection mix was scaled by the number of sample plates to be tested. Each infection mix was transferred into 5 mL closed tubes and nutated rapidly on a shaker at 37° C. incubator for 1 hour. The infection mixes were then diluted 25× in fresh cell culture media and then added to assay plates at 40 μL per well using a ViaFlo 384 pipettor. After 5 day incubation at 37° C. in a CO2 incubator, assay plates were processed with Cell-titer glo reagent using a ViaFlo 384 with an addition/mixing program. Plates were read immediately on Envision reader. Assay signals were plotted and dose response curves generated to determine individual compound EC50s.

Another data set is described as follows: Solubility in FaSSIF. Particulars: for solubility / solubility at 2 h: 23 °C, pH 6.5, fassif, thermodynamic from solid; for solubility: FaSSIF (pH 6.5) solubility. How it is done: Buffer Preparation: Fasted State Simulated Intestinal Fluid (FaSSIF): Simulated Intestinal Fluid (SIF) powder containing a complex of Taurocholate and Lecithin (4:1 molar ratio) was obtained from Biorelevant. 0.056 g of SIF powder was added to 25 mL of buffer, adjusted to pH 6.5, containing 0.011 g of NaOH (pellets), 0.099 g of NaH2PO4 (monohydrate), and 0.155 g of NaCl. The buffer was prepared with HPLC H2O. The SIE powder was stirred until completely dissolved and allowed to stand for 2 hours.
Test Compounds: Each test compound was placed in a vial containing approximately 7 mg of material. Aliquots were weighed out for each assay media at each time point to be analyzed. The buffer was added to each vial such that the final dose concentration of 5 mg/mL was achieved. Samples were then vortexed for 5-10 seconds.
The plate was sealed with a pierceable heat seal and analyzed by HPLC-UV.

Data set [1] has as its target bovine intestinal alkaline phosphatase (Bos taurus (Bovine), UniProt P19111). As to the kind of experiment: BiALP: conversion by bovine intestinal alkaline phosphatase. The following applies: 2 μM substrate, 100 ng/mL iALP, Tris pH 7.8, 37° C., 60 minutes; for [Intermediate A] or [Amprenavir]: parent formed. The class given is in vitro ADME. How it is done:
Fosamprenavir and its parent compound (amprenavir) were purchased from Millipore Sigma (St. Louis, MO). Test compounds, Intermediate A, fosamprenavir, and amprenavir were each separately dissolved in dimethyl sulfoxide (DMSO) at a concentration of 10 mM to form stock solutions.
All other chemicals were purchased from Millipore Sigma (St. Louis, MO) and Thermo Fisher Scientific (Waltham, MA). […] Internal Standard/Quench (IS/Q) was 100 nM labetalol in 99:1 (v/v) acetonitrile/formic acid.
Incubations were performed with Tris buffer alone (0.1 M Tris-HCl pH 7.8 containing 1 mM MgCl2 and 1 mM ZnCl2) or the same Tris buffer further containing 100 ng/mL iALP (0.01 units/mL). Triplicate 100 μL aliquots of Tris buffer±iALP were warmed to 37° C. and the reactions were initiated by the addition of the test compound or fosamprenavir to obtain final substrate concentrations of 2 μM. Incubations were then continued at 37° C. At 60 minutes, reactions were terminated by the addition of 200 μl of IS/Q and mixed by pipette. […] Aliquots (150 μL) of the supernatants were transferred to fresh plates containing 150 μL of water. Aliquots (15 μL) of the diluted supernatants were analyzed by mass spectrometry as described below.
Quantification of the test compounds and fosamprenavir was performed by analyte/internal standard peak area ratios (PARs) with comparison to 2 μM Intermediate A and amprenavir, respectively. The LC instrumentation consisted of a Thermo Scientific Vanquish pump and a Thermo Hypersil Gold column (1.9 μm particle size, 2.1×50 mm). […] The MS instrument was a Thermo Q Exactive™ Plus operating in positive ionization mode with mass tolerance of 5 ppm and calibrated on a twice weekly basis.

Another data set is described as follows: PBS Stability Assay. The class given is physicochemical. Particulars: buffer, pH 7.4, 2 μM, phosphate buffered saline pH 7.4; read-out: PBS T½. Here is the method:
Reagents. Stock solutions of test compounds in dimethyl sulfoxide (DMSO) having a final concentration of 10 mM were prepared and used in all experiments. Sekisui XenoTech (Kansas City, KS) provided pooled intestinal S9 fractions. All other chemicals were purchased from Sigma-Aldrich (St. Louis, MO) or VWR (West Chester, PA). Internal Standard/Quench (IS/Q) used to stop reactions was 100 nM labetalol in (by volume) formic acid (1%) and acetonitrile (99%).
PBS Stability Assay: For each test compound, an aliquot of the test compound was added to phosphate buffered saline (137 mM NaCl, 2.7 mM KCl, 10 mM phosphate buffer), pH 7.4. The incubation was initiated by the addition of the test compound to PBS to a final concentration of 2 μM. At 0, 10, 20, 30, 60 and 120 min, 25 μL aliquots of the incubation mixture were transferred to plates containing 225 μl of IS/Q solution. After quenching, the plates were centrifuged at 3000×g for 30 minutes. 150 μL aliquots of each supernatant were transferred to new plates and 150 μL water was added. Aliquots (10 μL) of the prepared samples were analyzed on a Thermo Q-Exactive mass spectrometer as described below.
Liquid Chromatography-Mass Spectrometry: Quantification of test compounds and control substrate was performed by analyte/internal standard peak area ratio (PAR) values measured on a Thermo Q-Exactive mass spectrometer coupled to a Dionex UltiMate 3000 HPLC with a Leap Technologies HTC PAL autosampler. The column used for analysis was a Thermo Scientific Hypersil GOLD (1.9 μm particle size, 50×2.1 mm). Mobile phase A consisted of 0.1% (v/v) formic acid in water. Mobile phase B consisted of 0.1% (v/v) formic acid in acetonitrile. Elution of analytes was achieved by a series of linear gradients varying the proportions of A and B. The mass spectrometer was calibrated on a weekly basis and mass tolerance of 5 ppm was used.
Data Analysis. Metabolic stabilities were determined by measuring the rates of disappearance of test compound and positive control substrate. Data (% of substrate remaining) were plotted on a semi-log scale and fitted using an exponential decline model:
where • Ct% of substrate remaining at time=t • C0% of substrate remaining at time=0 • t time • T½ half-life • The Half-life (T½) is determined by the following equation:
[formula] • Assuming a first-order reaction, the slope (k) is extrapolated from the aforementioned plotted data.

[2] abbreviates: FaSSIF pH 6.5, dose 5 mg/mL, 2-hour incubation, ambient temperature.

Sequence of bovine intestinal alkaline phosphatase (P19111 20-506): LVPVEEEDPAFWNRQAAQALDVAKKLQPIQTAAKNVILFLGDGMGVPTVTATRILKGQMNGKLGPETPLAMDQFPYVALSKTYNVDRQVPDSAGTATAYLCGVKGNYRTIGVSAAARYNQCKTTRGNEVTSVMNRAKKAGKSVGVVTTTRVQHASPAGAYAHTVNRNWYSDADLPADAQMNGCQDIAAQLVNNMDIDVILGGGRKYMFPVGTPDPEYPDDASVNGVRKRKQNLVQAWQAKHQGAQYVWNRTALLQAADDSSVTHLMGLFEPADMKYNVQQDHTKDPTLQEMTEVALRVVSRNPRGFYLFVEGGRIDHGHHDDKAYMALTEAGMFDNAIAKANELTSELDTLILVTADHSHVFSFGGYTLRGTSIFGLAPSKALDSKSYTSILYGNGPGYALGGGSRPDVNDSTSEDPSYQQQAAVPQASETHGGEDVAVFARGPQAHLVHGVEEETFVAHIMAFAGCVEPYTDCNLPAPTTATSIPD

The term EC50 denotes the concentration giving half of the maximal effect. With `COC(=O)N[C@H](C(=O)N[C@@H](Cc1ccc(C#Cc2cnc(N3CC4CCC(C3)N4C3COC3)nc2)cc1)[C@H](CN(Cc1c(F)cc(-c2ccn(C(F)F)n2)cc1F)NC(=O)[C@@H](NC(=O)OC)C(C)(C)C(F)(F)F)OC(=O)OC(C)OC(=O)CC(C)(C)c1c(CC(=O)O)cc(C)cc1OP(=O)(O)O)C(C)(C)C(F)(F)F` (stereo in doubt) [Example 64], in the data set with HIV-1 IIIB strain (read-out: EC50), the 50% effective concentration (EC50) was determined as 11.1 nM. Also, in the data set “Solubility in FaSSIF” (setting [2]), the “FaSSIF (pH 6.5) solubility” value was determined as 165 μg/mL. Further, the “[Compound]” value in data set [1] came out at 1271 nM. Besides, the half-life at 2 μM in the data set “PBS Stability Assay” is 8.43 h.

By solubility is commonly meant the dissolved amount per volume that the medium holds. Consider `COC(=O)N[C@H](C(=O)N[C@@H](Cc1ccc(C#Cc2cnc(N3CC4CCC(C3)N4C3COC3)nc2)cc1)[C@H](CN(Cc1c(F)cc(-c2ccn(C(F)F)n2)cc1F)NC(=O)[C@@H](NC(=O)OC)C(C)(C)C(F)(F)F)OC(=O)OCOC(=O)CC(C)(C)c1c(OP(=O)(O)O)cc(C(=O)O)cc1C(=O)O)C(C)(C)C(F)(F)F` [Example 1], for which, in the data set on HIV-1 IIIB strain (read-out: EC50), the EC50 was 7.6 nM. In “Solubility in FaSSIF” (setting [2]), the solubility was determined as 5060 µg/mL (≈ 3220 µM). Moreover, the “[Compound]” value in data set [1] is recorded as 1318.1 nM. Further, the half-life at 2 μM in “PBS Stability Assay” was determined as 8.74 h.

In the case of `COC(=O)N[C@H](C(=O)N[C@@H](Cc1ccc(C#Cc2cnc(N3CC4CCC(C3)N4C3COC3)nc2)cc1)[C@H](CN(Cc1c(F)cc(-c2ccn(C(F)F)n2)cc1F)NC(=O)[C@@H](NC(=O)OC)C(C)(C)C(F)(F)F)OC(=O)OCOC(=O)CC(C)(C)c1c(C)cc(C(=O)O)cc1OP(=O)(O)O)C(C)(C)C(F)(F)F` [Example 2], the EC50 in the data set on HIV-1 IIIB strain (read-out: EC50) turned out to be 2.1 nM. Besides, in the data set “Solubility in FaSSIF” (setting [2]), the solubility came to 680 µg/mL (≈ 440 µM). In data set [1], the “[Compound]” value stood at 1359.6 nM. Moreover, the half-life at 2 μM in “PBS Stability Assay” came out at 6.52 h.

In the data set with HIV-1 IIIB strain, `COC(=O)N[C@H](C(=O)N[C@@H](Cc1ccc(C#Cc2cnc(N3CC4CCC(C3)N4C3COC3)nc2)cc1)[C@H](CN(Cc1c(F)cc(-c2ccn(C(F)F)n2)cc1F)NC(=O)[C@@H](NC(=O)OC)C(C)(C)C(F)(F)F)OC(=O)CC(C)(C)c1c(CC(=O)N(CCCC(=O)O)CC(=O)O)cc(C)cc1OP(=O)(O)O)C(C)(C)C(F)(F)F` [Example 8] returned a 50% effective concentration (EC50) of 230 nM. Moreover, the concentration in solution in “Solubility in FaSSIF” (solubility at 2 h) came to 3260 µg/mL (≈ 2000 µM). In addition, in data set [1], the “[Compound]” value is given as 1709.4 nM, the “biALP Intermediate A or [Amprenavir] (% of total)” value was 8.4 % of total and the “[Intermediate A] or [Amprenavir]” value is reported as 157.3 nM. Also, in “PBS Stability Assay”, the half-life at 2 μM was 7.11 h.

As for `COC(=O)N[C@H](C(=O)N[C@@H](Cc1ccc(C#Cc2cnc(N3CC4CCC(C3)N4C3COC3)nc2)cc1)[C@H](CN(Cc1c(F)cc(-c2ccn(C(F)F)n2)cc1F)NC(=O)[C@@H](NC(=O)OC)C(C)(C)C(F)(F)F)OC(=O)CC(C)(C)c1c(CC(=O)Nc2ccccn2)cc(C)cc1OP(=O)(O)O)C(C)(C)C(F)(F)F` [Example 13, (5S,10S,11S,14S)-8-(4-(1-(difluoromethyl)-1H-pyrazol-3-yl)-2,6-difluorobenzyl)-11-(4-((2-(8-(oxetan-3-yl)-3,8-diazabicyclo[3.2.1]octan-3-yl)pyrimidin-5-yl)ethynyl)benzyl)-3,6,13,16-tetraoxo-5,14-bis(1,1,1-trifluoro-2-methylpropan-2-yl)-2,17-dioxa-4,7,8,12,15-pentaazaoctadecan-10-yl 3-methyl-3-(4-methyl-2-(2-oxo-2-(pyridin-2-ylamino)ethyl)-6-(phosphonooxy)phenyl)butanoate], the concentration for a half-maximal effect (EC50) in the data set on HIV-1 IIIB strain came out at 223 nM. In data set [1], the “[Compound]” value is 1660.2 nM, the “biALP Intermediate A or [Amprenavir] (% of total)” value is given as 0.1 % of total and the “[Intermediate A] or [Amprenavir]” value was determined as 1.8 nM. The half-life at 2 μM in the data set “PBS Stability Assay” turned out to be 1.98 h.

Molecule `COC(=O)N[C@H](C(=O)N[C@@H](Cc1ccc(C#Cc2cnc(N3CC4CCC(C3)N4C3COC3)nc2)cc1)[C@H](CN(Cc1c(F)cc(-c2ccn(C(F)F)n2)cc1F)NC(=O)[C@@H](NC(=O)OC)C(C)(C)C(F)(F)F)OC(=O)CC(C)(C)c1c(CC(=O)N[C@@H](CC(=O)O)C(=O)O)cc(C)cc1OP(=O)(O)O)C(C)(C)C(F)(F)F` [Example 23] displayed a concentration for a half-maximal effect (EC50) with HIV-1 IIIB strain of 204 nM. The same molecule showed a solubility at 2 h in the data set “Solubility in FaSSIF” of 4540 µg/mL (≈ 2840 µM). Also, the half-life at 2 μM in “PBS Stability Assay” stood at 11.7 h.

In the data set with HIV-1 IIIB strain, `COC(=O)N[C@H](C(=O)N[C@@H](Cc1ccc(C#Cc2cnc(N3CC4CCC(C3)N4C3COC3)nc2)cc1)[C@H](CN(Cc1c(F)cc(-c2ccn(C(F)F)n2)cc1F)NC(=O)[C@@H](NC(=O)OC)C(C)(C)C(F)(F)F)OC(=O)CC(C)(C)c1c(CC(=O)NC(CCCC(=O)O)C(=O)O)cc(C)cc1OP(=O)(O)O)C(C)(C)C(F)(F)F` (some centres unmarked) [Example 41] displayed a concentration giving a half-maximal response (EC50) of 43.5 nM. In addition, in data set [1], the “[Compound]” value was 2074.8 nM. Also, in the data set “PBS Stability Assay”, the half-life at 2 μM turned out to be 5.02 h.

In the case of `COC(=O)N[C@H](C(=O)N[C@@H](Cc1ccc(C#Cc2cnc(N3CC4CCC(C3)N4C3COC3)nc2)cc1)[C@H](CN(Cc1c(F)cc(-c2ccn(C(F)F)n2)cc1F)NC(=O)[C@@H](NC(=O)OC)C(C)(C)C(F)(F)F)OC(=O)OCOC(=O)CC(C)(C)c1c(CC(=O)N2CCN(S(C)(=O)=O)CC2)cc(C)cc1OP(=O)(O)O)C(C)(C)C(F)(F)F` [Example 84], the EC50 in the data set with HIV-1 IIIB strain stood at 3.9 nM. In addition, the “[Compound]” value in data set [1] worked out at 1594.8 nM. Also, the half-life at 2 μM in “PBS Stability Assay” came to 3.02 h.
